The text below walks through data of US9187435B2, “Bridged Spiro[2.4]heptane ester derivatives” (Actelion Pharmaceuticals Ltd., priority 2010, dated 2015).

For orientation: EC50 means the concentration that produces a half-maximal response.

In this assay the target is T1, human ALX receptor (Homo sapiens, UniProt P25090).
T1 construct: expressed in transfected cells; host or cells: HEK293 (HEK293-hALXR-Gα16)
T1 sequence (P25090 1-351): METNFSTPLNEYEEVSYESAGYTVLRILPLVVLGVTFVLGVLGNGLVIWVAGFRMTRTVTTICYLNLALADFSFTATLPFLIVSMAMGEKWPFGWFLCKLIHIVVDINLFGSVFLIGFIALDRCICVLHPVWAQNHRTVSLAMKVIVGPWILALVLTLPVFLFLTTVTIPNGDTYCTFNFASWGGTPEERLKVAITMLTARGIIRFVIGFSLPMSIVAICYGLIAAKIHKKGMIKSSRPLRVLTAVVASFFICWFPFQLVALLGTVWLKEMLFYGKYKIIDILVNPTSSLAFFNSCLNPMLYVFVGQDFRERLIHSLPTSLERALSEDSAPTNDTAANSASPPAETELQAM
Briefly: Intracellular calcium measurements (FLIPR) in HEK293-hALXR-Gα16 cells, agonistic activity. The note with it: values normalized to WKYMVm 10 nM. In kind it is cell-based. A digest of the protocol: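 HEK293 cells co-expressing human ALX receptor and Gα16, loaded with 1 μM Fluo-4 AM (60 min, 37 °C), then exposed to serially diluted compound. Peak fluorescence above baseline (ex 488/em 540 nm) was recorded after compound addition. Values were normalized to 10 nM WKYMVm as the high control, after subtracting the buffer-addition baseline.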

Structures are written as SMILES. Where a name gives a salt, the structure may show the parent alone.

`O=C(OCCOCCN1CC[C@H](F)C1)[C@H]1[C@H](C(=O)Nc2ccc(Br)nc2)[C@@H]2CC[C@H]1C21CC1` [Example 48, (1S,2R,3R,4R)-[(S)-2-(2-(3-Fluoropyrrolidin-1-yl)ethoxy)ethyl 2-((6-bromopyridin-3-yl)carbamoyl)spiro[bicyclo[2.2.1]heptane-7,1′-cyclopropane]-3-carboxylate]]: the EC50 is 9.9 nM.

On to `Cc1cc(CNC(=O)[C@H]2[C@H](C(=O)OCCC3(F)CCNCC3)[C@H]3CC[C@@H]2C32CC2)on1` [Example 49, (1S,2R,3R,4R)-[2-(4-Fluoro-piperidin-4-yl)ethyl 2-(((3-methylisoxazol-5-yl)methyl)carbamoyl)spiro[bicyclo[2.2.1]heptane-7,1′-cyclopropane]-3-carboxylate]], for which the EC50 stood at 10.4 nM.

In the case of `O=C(OCC1CCNCC1)[C@H]1[C@H](C(=O)Nc2ccc(Br)cc2)[C@@H]2CC[C@H]1C21CC1` [Example 50, (1S,2R,3R,4R)-[(Piperidin-4-yl)methyl 2-((4-bromophenyl)carbamoyl)spiro[bicyclo[2.2.1]heptane-7,1′-cyclopropane]-3-carboxylate]hydrochloride], the half-maximal effective concentration (EC50) came out at 10.8 nM.

`Cc1cc(CNC(=O)[C@H]2[C@H](C(=O)OCC3(F)CCNCC3)[C@H]3CC[C@@H]2C32CC2)on1` [Example 51, (1S,2R,3R,4R)-[(4-Fluoro-piperidin-4-yl)methyl 2-(((3-methylisoxazol-5-yl)methyl)carbamoyl)spiro[bicyclo[2.2.1]heptane-7,1′-cyclopropane]-3-carboxylate]]: the EC50 stood at 11.3 nM.

Take `Cc1cc(CNC(=O)[C@H]2[C@H](C(=O)OCC3CCNCC3)[C@H]3CC[C@@H]2C32CC2)on1` [Example 52, (1S,2R,3R,4R)-[(Piperidin-4-yl)methyl 2-(((3-methylisoxazol-5-yl)methyl)carbamoyl)spiro[bicyclo[2.2.1]heptane-7,1′-cyclopropane]-3-carboxylate]]: the EC50 stood at 11.5 nM.

Take `O=C(OCCCCN1CC[C@H](F)C1)[C@H]1[C@H](C(=O)Nc2ccc(Br)nc2)[C@@H]2CC[C@H]1C21CC1` [Example 53, (1S,2R,3R,4R)-[(S)-4-(3-Fluoropyrrolidin-1-yl)butyl 2-((6-bromopyridin-3-yl)carbamoyl)spiro[bicyclo[2.2.1]heptane-7,1′-cyclopropane]-3-carboxylate]]: the EC50 is 11.9 nM.

`O=C(OCCCCN1CCCC1)[C@H]1[C@H](C(=O)Nc2ccc(Br)nc2)[C@@H]2CC[C@H]1C21CC1` [Example 54, (1S,2R,3R,4R)-[4-(Pyrrolidin-1-yl)butyl 2-((6-bromopyridin-3-yl)carbamoyl)spiro[bicyclo[2.2.1]heptane-7,1′-cyclopropane]-3-carboxylate]]: the EC50 was 14.6 nM.

For the compound `O=C(OCC1(F)CCNCC1)[C@H]1[C@H](C(=O)Nc2ccc(Br)nc2)[C@@H]2CC[C@H]1C21CC1` [Example 55, (1S,2R,3R,4R)-[(4-Fluoro-piperidin-4-yl)methyl 2-((6-bromopyridin-3-yl)carbamoyl)spiro[bicyclo[2.2.1]heptane-7,1′-cyclopropane]-3-carboxylate]], the EC50 is 18.5 nM.

Turning to `O=C(OC1CCNCC1(F)F)[C@H]1[C@H](C(=O)Nc2ccc(Br)nc2)[C@@H]2CC[C@H]1C21CC1` (stereo partly drawn) [Example 56, (1S,2R,3R,4R)-[(3,3-Difluoro-piperidin-4-yl) 2-((6-bromopyridin-3-yl)carbamoyl)spiro[bicyclo[2.2.1]heptane-7,1′-cyclopropane]-3-carboxylate]], the half-maximal effective concentration (EC50) worked out at 28.2 nM.

In the case of `Cc1cc(CNC(=O)[C@H]2[C@H](C(=O)OCCC3(F)CCNCC3)[C@H]3CC[C@@H]2C32CC2)no1` [Example 58, (1S,2R,3R,4R)-[2-(4-Fluoro-piperidin-4-yl)ethyl 2-(((5-methylisoxazol-3-yl)methyl)carbamoyl)spiro[bicyclo[2.2.1]heptane-7,1′-cyclopropane]-3-carboxylate]], the half-maximal effective concentration (EC50) stood at 36.7 nM.

With `Cc1cc(CNC(=O)[C@H]2[C@H](C(=O)OCC3(F)CCNCC3)[C@H]3CC[C@@H]2C32CC2)no1` [Example 59, (1S,2R,3R,4R)-[(4-Fluoro-piperidin-4-yl)methyl 2-(((5-methylisoxazol-3-yl)methyl)carbamoyl)spiro[bicyclo[2.2.1]heptane-7,1′-cyclopropane]-3-carboxylate]], the EC50 amounted to 41.4 nM.

With `O=C(OC1CCNCC1)[C@H]1[C@H](C(=O)NCc2ccc(Br)cc2F)[C@@H]2CC[C@H]1C21CC1` [Example 60, (1S,2R,3R,4R)-[Piperidin-4-yl 2-((4-bromo-2-fluorobenzyl)carbamoyl)spiro[bicyclo[2.2.1]heptane-7,1′-cyclopropane]-3-carboxylate]], the EC50 was determined as 43.4 nM.

Turning to `Cc1cc(CNC(=O)[C@H]2[C@H](C(=O)OC3CCNCC3(F)F)[C@H]3CC[C@@H]2C32CC2)on1` (stereo partly drawn) [Example 61, (1S,2R,3R,4R)-[(3,3-Difluoro-piperidin-4-yl) 2-(((3-methylisoxazol-5-yl)methyl)carbamoyl)spiro[bicyclo[2.2.1]heptane-7,1′-cyclopropane]-3-carboxylate]], the 50% effective concentration (EC50) was determined as 50.1 nM.

Consider `Cc1cc(CNC(=O)[C@H]2[C@H](C(=O)OCCN3CCNCC3)[C@H]3CC[C@@H]2C32CC2)no1` [Example 63, (1S,2R,3R,4R)-[2-(piperazin-1-yl)ethyl 2-(((5-methylisoxazol-3-yl)methyl)carbamoyl)spiro[bicyclo[2.2.1]heptane-7,1′-cyclopropane]-3-carboxylate]], for which the EC50 stood at 79 nM.

As for `Cc1cc(CNC(=O)[C@H]2[C@H](C(=O)OCCC(N)=O)[C@H]3CC[C@@H]2C32CC2)on1` [Example 65, (1S,2R,3R,4R)-[(3-Amino-3-oxopropyl) 2-(((3-methylisoxazol-5-yl)methyl)carbamoyl)spiro[bicyclo[2.2.1]heptane-7,1′-cyclopropane]-3-carboxylate]], the EC50 came out at 107 nM.

`Cc1cc(CNC(=O)[C@H]2[C@H](C(=O)OCCC3CCNCC3(F)F)[C@H]3CC[C@@H]2C32CC2)on1` (stereo partly drawn) [Example 66, (1S,2R,3R,4R)-[(3,3-Difluoro-piperidin-4-yl)ethyl 2-(((3-methylisoxazol-5-yl)methyl)carbamoyl)spiro[bicyclo[2.2.1]heptane-7,1′-cyclopropane]-3-carboxylate]]: the EC50 was 113 nM.

Regarding `O=C(OCCCC(=O)N1CCCC1)[C@H]1[C@H](C(=O)Nc2ccc(Br)nc2)[C@@H]2CC[C@H]1C21CC1` [Example 67, (1S,2R,3R,4R)-[(4-Pyrrolidino-4-oxobutyl) 2-((6-bromopyridin-3-yl)carbamoyl)spiro[bicyclo[2.2.1]heptane-7,1′-cyclopropane]-3-carboxylate]], the concentration giving a half-maximal response (EC50) amounted to 125 nM.

Take `NC(=O)CCOC(=O)[C@H]1[C@H](C(=O)Nc2ccc(Br)nc2)[C@@H]2CC[C@H]1C21CC1` [Example 68, (1S,2R,3R,4R)-[(3-Amino-3-oxopropyl) 2-((6-bromopyridin-3-yl)carbamoyl)spiro[bicyclo[2.2.1]heptane-7,1′-cyclopropane]-3-carboxylate]]: the EC50 came out at 135 nM.

Take `O=C(OCCOCCN1CC[C@H](F)C1)[C@H]1[C@H](C(=O)NCc2ccc(Br)cc2F)[C@@H]2CC[C@H]1C21CC1` [Example 69, (1S,2R,3R,4R)-[(S)-2-(2-(3-Fluoropyrrolidin-1-yl)ethoxy)ethyl 2-((4-bromo-2-fluorobenzyl)carbamoyl)spiro[bicyclo[2.2.1]heptane-7,1′-cyclopropane]-3-carboxylate]]: the half-maximal effective concentration (EC50) worked out at 145 nM.

With `O=C(OCCN1CCNCC1)[C@H]1[C@H](C(=O)NCc2ccc(Br)cc2F)[C@@H]2CC[C@H]1C21CC1` [Example 71, (1S,2R,3R,4R)-[2-(piperazin-1-yl)ethyl 2-((4-bromo-2-fluorobenzyl)carbamoyl)spiro[bicyclo[2.2.1]heptane-7,1′-cyclopropane]-3-carboxylate]dihydrochloride], the EC50 worked out at 162 nM.

As for `O=C(OCCC1CCNCC1)[C@H]1[C@H](C(=O)NCc2ccc(Br)cc2F)[C@@H]2CC[C@H]1C21CC1` [Example 72, (1S,2R,3R,4R)-[2-(Piperidin-4-yl)ethyl 2-((4-bromo-2-fluorobenzyl)carbamoyl)spiro[bicyclo[2.2.1]heptane-7,1′-cyclopropane]-3-carboxylate]hydrochloride], the EC50 worked out at 262 nM.

`O=C(OCCC1CCNCC1(F)F)[C@H]1[C@H](C(=O)Nc2ccc(Br)nc2)[C@@H]2CC[C@H]1C21CC1` (stereo partly drawn) [Example 73, (1S,2R,3R,4R)-[2-(3,3-Difluoro-piperidin-4-yl)ethyl 2-((6-bromopyridin-3-yl)carbamoyl)spiro[bicyclo[2.2.1]heptane-7,1′-cyclopropane]-3-carboxylate]]: the EC50 came to 270 nM.

In the case of `O=C(OCCOCCN1CCC(F)(F)C1)[C@H]1[C@H](C(=O)Nc2ccc(Br)nc2)[C@@H]2CC[C@H]1C21CC1` [Example 75, (1S,2R,3R,4R)-[2-(2-(3,3-Difluoropyrrolidin-1-yl)ethoxy)ethyl 2-((6-bromopyridin-3-yl)carbamoyl)spiro[bicyclo[2.2.1]heptane-7,1′-cyclopropane]-3-carboxylate]], the EC50 stood at 403 nM.

`O=C(OC1CCN(Cc2ccccc2)CC1)[C@H]1[C@H](C(=O)Nc2ccc(Br)nc2)[C@@H]2CC[C@H]1C21CC1` [Example 76, (1S,2R,3R,4R)-[1-Benzyl-piperidin-4-yl 2-((6-bromopyridin-3-yl)carbamoyl)spiro[bicyclo[2.2.1]heptane-7,1′-cyclopropane]-3-carboxylate]]: the EC50 was determined as 2060 nM.
